Assay results taken from paper PMC6269734, “Synthesis and Pharmacological Activities of Some New Triazolo- and Tetrazolopyrimidine Derivatives” (Molecules, 2013).
Where two headings read alike, the source gives them in different places.

Legend:
[1] = tested on: carrageenan induced edema; assay: Anti-inflammatory activity, carrageenan induced edema (paw volume, plethysmometer); assay type: in vivo, mice; details: for inhibition in vivo at 5 mg/kg: Mus musculus, po, dose 5 mg/kg b.m (p.o.), n = 6, read-out: Edema inhibition (Means ± E.M); for anti-inflammatory activity (in words): grading in the structure activity discussion
Experimental: (§1) Female albino mice (16–18 g) and Sprague Dawley […] (100 g) obtained from the Theodor Bilharz Research Institute (TBRI, Giza city, Egypt) were used. Approval of the institutional animal ethical committee for the animal studies was obtained from the Office of Environmental Health and Radiation Safety, ACUC Protocol 1096-5. The animals were maintained according to accepted standards of animal care.
Newly synthesized thienopyrimidine derivatives were dissolved in 0.5% carboxymethyl cellulose (CMC) as a homogeneous solution and administered […]. One hundred and eight […] were divided into eighteen groups, each group consisting of six animals. Anti-inflammatory activity of the compounds was studied in mice using carrageenan induced edema. A suspension of the tested compound and the reference drug, indomethacin in aqueous solution was administered orally at a dose 5 mg/kg. Control animals were treated with 0.5% CMC only. After 30 min, 0.1 mL of freshly prepared 1.0% carrageenan solution (in formol saline) was injected into the sub-plantar region of the right hind paw according to Hernandez-Perez. The right paw volume was measured using a digital plethysmometer (Model 7150, Ugo Basile, Varese, Italy), directly before and after 1, 2, 3 h, intervals after administration of the tested compounds.

Acute toxicity (LD50) = details: mouse, in vivo, ip; male adult mice, i.p., mortality after 24 h, graphical method
Experimental: To determine the acute toxicity of the compounds, the LD50 values for compounds 2, 3, 6, 9 and 10 were determined by injecting different gradual increased doses of the tested compounds into male adult mice, then calculating the dose corresponding to 50% animal death (Table 3).
Groups of male adult mice, each of six animals, were injected i.p. with graded doses of each of the test compounds. The percentage of mortality in each group of animals was determined 24 h, after injection. Computation of LD50 was processed by a graphical method.

[2] = tested on: Gastric Ulceration in mice; assay: Ulcerogenic activity (gastric ulceration in mice); assay type: in vivo; details: oral, 6 h; for mean ulcer lesions ± SEM: n = 6
Experimental: as §1
Seventy-two mice were divided into twelve groups. Ulcerogenic activity was evaluated after oral administration of the tested compounds or indomethacin at doses of 10, 50, and 100 mg/kg. Control mice received 0.5% CMC. Food but not water was removed 24 h before administration of the tested compounds. After 6 h, the mice were sacrificed; the stomach was removed and opened along the greater curvature, washed with distilled water and cleaned gently by dipping in saline. The mucosa damage for each stomach was examined using a stereoscopic microscope and compared with the reference drug indomethacin according to the reported procedure.

Row | SMILES | inhibition in vivo at 5 mg/kg ([1]; 1 h) [%] | inhibition in vivo at 5 mg/kg ([1]; 2 h) [%] | inhibition in vivo at 5 mg/kg ([1]; 3 h) [%] | anti-inflammatory activity (in words) [1] | LD50 at 24 h (Acute toxicity (LD50)) [mg/kg] | number of mice lesions bigger than 0.5 mm in length per total no. of mice ([2]; dose 10 mg/kg) | mean ulcer lesions ± SEM ([2]; dose 10 mg/kg) [mm] | number of mice lesions bigger than 0.5 mm in length per total no. of mice ([2]; dose 50 mg/kg) | mean ulcer lesions ± SEM ([2]; dose 50 mg/kg) [mm] | number of mice lesions bigger than 0.5 mm in length per total no. of mice ([2]; dose 100 mg/kg) | mean ulcer lesions ± SEM ([2]; dose 100 mg/kg) [mm]
1 | COc1ccc(C2=Nc3sc4c(c3C3=NCC(=O)N23)CCCCCC4)cc1 [Compound 4] | 16.5 ± 1.3 | 17.2 ± 1.1 | 19.3 ± 1.2 | weak | – | – | – | – | – | – | –
2 | COc1ccc(-c2nc3sc4c(c3c3nnc(Nc5ccccc5)n23)CCCCCC4)cc1 [Compound 12] | 19.4 ± 1.6 | 21.3 ± 1.3 | 23.3 ± 1.2 | moderate | – | – | – | – | – | – | –
3 | COc1ccc(-c2nc3sc4c(c3c3nnc(C)n23)CCCCCC4)cc1 [Compound 10, 5-(4-Methoxyphenyl)-3-methyl-2H-cycloocteno[4,5]thieno[2,3-d][1,2,4]triazolo-[4,5-a] pyrimidine] | 39.1 ± 1.5 | 48.4 ± 1.2 | 55.6 ± 1.1 | high | 2341 ± 11 | 0/6 | 0 | 0/6 | 0 | 0/6 | 0
4 | COc1ccc(C2=Nc3sc4c(c3C3=NNC(=O)CN23)CCCCCC4)cc1 [Compound 8, 6-(4-Methoxyphenyl)-3-oxo-2,4-dihydrocycloocteno[4,5]thieno[2,3-d]triazino-[1,2,4][3,4-a]pyrimidine] | 21.3 ± 1.2 | 24.6 ± 1.1 | 26.5 ± 1.2 | moderate | – | – | – | – | – | – | –
5 | COc1ccc(-c2nc3sc4c(c3c3nnc(CC#N)n23)CCCCCC4)cc1 [Compound 3, 5-(4-Methoxyphenyl)-3-cyanomethylcycloocteno[4.5]thieno[2.3-d]triazolo[1,2,4]-[4,5-a]pyrimidine] | 37.2 ± 1.3 | 46.3 ± 1.5 | 54.4 ± 1.1 | high | 2131 ± 13 | – | – | – | – | – | –
6 | COc1ccc(-c2nc(NN)c3c4c(sc3n2)CCCCCC4)cc1 [Compound 2, 2-(4-Methoxyphenyl)-4-hydrazinocycloocteno[4.5]thieno[2.3-d]pyrimidine] | 42.3 ± 1.1 | 49.3 ± 1.1 | 57.1 ± 1.4 | high | 2514 ± 12 | 0/6 | 0 | 0/6 | 0 | 0/6 | 0
7 | COc1ccc(-c2nc3sc4c(c3c3nnc(-c5ccccc5)n23)CCCCCC4)cc1 [Compound 14, 5-(4-Methoxyphenyl)-4-phenylcycloocteno[4,5]thieno[2,3-d][1,2,4]triazolo[4,5-c]pyrimidine] | 7.3 ± 1.1 | – | 11.2 ± 1.5 | weak | – | – | – | – | – | – | –
8 | COc1ccc(-c2nc3sc4c(c3c3n[nH]c(=O)n23)CCCCCC4)cc1 [Compound 9, 5-(4-Methoxy)phenyl-3-oxo-2H-cycloocteno[4,5]thieno[2,3-d][1,2,4]triazolo[4,5-a]pyrimidine] | 31.2 ± 1.2 | 35.1 ± 1.5 | 40.2 ± 1.6 | high | 1832 ± 12 | – | – | – | – | – | –
9 | COc1ccc(-c2nc3sc4c(c3c3nnnn23)CCCCCC4)cc1 [Compound 6, 5-(4-Methoxyphenyl)-cycloocteno[4.5]thieno[2.3-d]tetrazolo[4.5-e]pyrimidine] | 34.5 ± 1.2 | 42.1 ± 1.3 | 48.2 ± 1.2 | high | 2047 ± 12 | – | – | – | – | – | –
10 | COc1ccc(-c2nc3sc4c(c3c3nc5ccccc5c(=O)n23)CCCCCC4)cc1 [Compound 5, 8-(4-Methoxyphenyl)-6-oxo-cycloocteno[4.5]thino[2,3-d]pyrimidino[4.3-b]quinazoline] | 11.7 ± 1.1 | 13.2 ± 1.2 | 15.2 ± 1.5 | weak | – | – | – | – | – | – | –
11 | COc1ccc(-c2nc3sc4c(c3c3n[nH]c(=O)c(=O)n23)CCCCCC4)cc1 [Compound 7, 6-(4-Methoxyphenyl)-3,4-dioxo-2H-cycloocteno[4.5]thieno[2,3-d]triazino[1,2.4]-[3,4-a]pyrimidine] | 20.8 ± 1.4 | 22.3 ± 1.3 | 25.1 ± 1.4 | moderate | – | – | – | – | – | – | –
12 | COc1ccc2c(c1)c(CC(=O)O)c(C)n2C(=O)c1ccc(Cl)cc1 [Indomethacin, reference compound] | 44.7 ± 1.2 | 52.4 ± 1.2 | 61.2 ± 1.3 | – | 1817 ± 15 | 3/6 | 1.4 ± 0.2 | 5/6 | 1.9 ± 0.2 | 6/6 | 2.1 ± 0.2
